Assay results from PubChem BioAssay (NCI).
Several values for one entry are separate records, joined by “and”; a condition that tells them apart may be missing. Equal values may be shown once.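 These data come from cells grown in 96-well plates and exposed to compound for 48 hours at five concentrations. The concentration for 50% growth inhibition is given as GI50. At the TGI there is no net growth.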

How the values were obtained:
Assay in all cases: NCI tumour cell line growth inhibition, 48 h
HOP-62 NSCLC = test system: HOP-62 NSCLC
OVCAR-8 ovarian = test system: OVCAR-8 ovarian
UACC-62 melanoma = test system: UACC-62 melanoma
SF-295 CNS = test system: SF-295 CNS
ACHN renal = test system: ACHN renal
TK-10 renal = test system: TK-10 renal
CCRF-CEM leukemia = test system: CCRF-CEM leukemia
A498 renal = test system: A498 renal
UACC-257 melanoma = test system: UACC-257 melanoma

Compound	TGI (HOP-62 NSCLC)	TGI (OVCAR-8 ovarian)	TGI (UACC-62 melanoma)	TGI (SF-295 CNS)	TGI (ACHN renal)	TGI (TK-10 renal)	TGI (CCRF-CEM leukemia)	TGI (A498 renal)	TGI (UACC-257 melanoma)	GI50 (OVCAR-8 ovarian)	GI50 (UACC-62 melanoma)	GI50 (CCRF-CEM leukemia)	GI50 (UACC-257 melanoma)	GI50 (HOP-62 NSCLC)	GI50 (SF-295 CNS)	GI50 (ACHN renal)	GI50 (TK-10 renal) [µM]	GI50 (A498 renal) [µM]
COC(=O)C(=O)C(C(=O)OC)C(=O)C(=O)Nc1c(C)cccc1C (stereo not drawn)	> 100 µM	> 100 µM	> 100 µM	> 100 µM	> 100 µM	> 100 µM	> 100 µM	> 100 µM	> 100 µM									
O=C1[C@@H]2C(c3ccc(Br)cc3)=NO[C@@H]2C(=O)N1c1ccc(Cc2ccc(N3C(=O)[C@H]4C(c5ccc(Br)cc5)=NO[C@H]4C3=O)cc2)cc1	> 3.48 µM	> 40 µM	> 40 µM	> 3.48 µM	> 40 µM	> 40 µM	> 40 µM	> 3.48 µM and 16.2 µM	> 40 µM	> 40 µM	> 40 µM	> 40 µM	> 40 µM					
Cc1ccc(NC(=O)CCCC(=O)CC(=O)c2ccc(Br)cc2)cc1	> 100 µM	> 100 µM	> 100 µM	> 100 µM	> 100 µM	> 100 µM	> 100 µM	> 100 µM	> 100 µM									
CN=c1ss/c(=N\C(=S)N(C)C)n1C	> 100 µM	> 100 µM	> 100 µM	> 100 µM	> 100 µM	> 100 µM	> 100 µM	> 100 µM	> 100 µM									
O=C1C(c2ccccc2)=C(c2ccccc2)C(c2ccc(Cc3ccc(C4=C(c5ccccc5)C(=O)C(c5ccccc5)=C4c4ccccc4)cc3)cc2)=C1c1ccccc1	> 100 µM	> 100 µM	> 100 µM	> 100 µM		> 100 µM	> 100 µM	> 100 µM	> 100 µM									
COc1cc(C2c3cc4c(cc3[C@@H](NCCN(C)C)C3COC(=O)[C@H]23)OCO4)cc(OC)c1O (stereo partly drawn)	0.191 µM and 0.372 µM	1.72 µM and 2.72 µM	0.319 µM and 0.834 µM	1.05 µM and 1.66 µM	0.045 µM and 0.192 µM	3.58 µM and 5.2 µM	0.417 µM and 0.352 µM		4.14 µM and 6.16 µM	0.265 µM and 1.08 µM	0.0319 µM and 0.088 µM	0.0136 µM and 0.0277 µM	0.526 µM and 1.62 µM	0.0191 µM and 0.0491 µM	0.0652 µM and 0.15 µM	< 0.01 µM and 0.0269 µM		
CC(C)(CN1C(=O)C(Cl)=C(Cl)C1=O)CN1C(=O)C(Cl)=C(Cl)C1=O	45.6 µM	14.7 µM	29.5 µM	58.8 µM	21.7 µM	22.2 µM		> 59 µM	29 µM									
Cc1nc(N)nc(N)c1CCCCc1ccc(N)cc1	18.2 µM	20.6 µM	14.1 µM	14.2 µM	59.2 µM	28.8 µM	22.5 µM		18.5 µM									
O=S1(=O)N2CN3CN(C2)CN1C3	624 µM	110 µM	49.2 µM	63.3 µM	283 µM	692 µM	> 31.6 µM and 110 µM	522 µM	94.3 µM	30.8 µM								
COc1ccc(-c2cc(-c3ccc(Nc4nc(Nc5ccccc5)nc(Nc5ccc(Cl)cc5)n4)cc3)nc(N)n2)cc1	33.1 µM	> 50 µM	> 50 µM	25.8 µM	> 50 µM	> 50 µM	29.5 µM	20 µM	45.5 µM	15.1 µM	12.1 µM	6 µM	15.9 µM	10.3 µM	7.92 µM	16.4 µM	14.2	9.29
O=[N+]([O-])c1ccc(C2=Nc3ccccc3S(=O)C(c3ccccc3)C2)cc1 (stereo not drawn)	84.7 µM	> 100 µM	29.9 µM	> 100 µM	44.2 µM	82.9 µM	36.9 µM		55.3 µM									
CCCCC1=CSC(c2ccccc2)=C(c2ccccc2)S1		> 100 µM	> 100 µM	> 100 µM		> 100 µM	> 100 µM	> 100 µM										
COc1ccccc1NC(=O)C1=C(C)NC(C)=C(C(=O)Nc2ccccc2OC)C1c1ccccc1[N+](=O)[O-]	88.2 µM	40.5 µM	54.1 µM	> 100 µM	37.5 µM	59.2 µM	48.9 µM		47.5 µM									
CC(C)(C)c1cc(CCC(=O)Nc2ccc(Cl)cc2)[nH]c(=S)n1	> 100 µM	> 100 µM	> 100 µM	> 100 µM	> 100 µM	> 100 µM	> 100 µM		> 100 µM									
Nc1nnc2c(-c3ccccc3)[nH]nc2n1		> 100 µM		> 100 µM	> 100 µM	> 100 µM	> 100 µM	> 100 µM	> 100 µM									
COc1cc[c]([Sn]([c]2ccc(OC)cc2)([c]2ccc(OC)cc2)[c]2ccc(OC)cc2)cc1	> 100 µM	> 100 µM	69.3 µM	> 100 µM	96.7 µM	51.1 µM	69.8 µM	76.3 µM		27.1 µM	17.9 µM	20.7 µM		81.8 µM	39.4 µM	17.4 µM	17.9	14.2

Compound	TGI (HOP-62 NSCLC)	TGI (OVCAR-8 ovarian)	TGI (UACC-62 melanoma)	TGI (SF-295 CNS)	TGI (ACHN renal)	TGI (TK-10 renal)	TGI (CCRF-CEM leukemia)	TGI (A498 renal)	TGI (UACC-257 melanoma)	GI50 (OVCAR-8 ovarian)	GI50 (UACC-62 melanoma)	GI50 (CCRF-CEM leukemia)	GI50 (UACC-257 melanoma)	GI50 (HOP-62 NSCLC)	GI50 (SF-295 CNS)	GI50 (ACHN renal)	GI50 (TK-10 renal) [µM]	GI50 (A498 renal) [µM]
Nc1nncc2c1c(Br)cn2C1OC(CO)C(O)C1O (stereo not drawn)	> 100 µM		> 100 µM	> 100 µM	> 100 µM	> 100 µM	> 100 µM	> 100 µM	> 100 µM									
NC(=O)c1ccc2c(c1)-c1nc-2nc2[n-]c(nc3nc(nc4[n-]c(n1)c1ccc(C(N)=O)cc41)-c1ccc(C(N)=O)cc1-3)c1ccc(C(N)=O)cc21.[Co+2]	> 50 µM	> 50 µM	> 50 µM	> 50 µM	> 50 µM	> 50 µM	> 50 µM	> 50 µM	> 50 µM	> 50 µM	> 50 µM	14.5 µM	> 50 µM	> 50 µM	> 50 µM	> 50 µM	> 50	> 50
CN(C)CCNC(=O)c1cccc2c1nc(-c1ccc(F)cc1)c1ccccc12	12.9 µM	18.2 µM	14.8 µM	19.3 µM	11.4 µM	16.6 µM	11.9 µM	16.2 µM	11.2 µM									
CC(C)N(C(=O)C12C3C4C1C1C2C3C41C#N)C(C)C (stereo not drawn)	> 100 µM	> 100 µM	> 100 µM	> 100 µM	> 100 µM	> 100 µM	> 85.1 µM	> 100 µM	> 100 µM									
Cc1ccc(C(=O)CC2(O)C(=O)Nc3c(C)cc(Cl)cc32)cc1 (stereo not drawn)	> 100 µM	> 100 µM		> 100 µM	> 100 µM	> 100 µM	> 100 µM		> 100 µM									
COC(=O)C(=O)Cc1nc2ccccc2s1	> 100 µM	> 100 µM	> 100 µM	> 100 µM	> 100 µM	> 100 µM	> 100 µM	> 100 µM	> 100 µM									
COC(=O)CCSC(=O)Nc1ccc(N=Nc2ccccc2)cc1	> 100 µM	> 100 µM	> 100 µM	> 100 µM	> 100 µM	> 100 µM	> 100 µM	62.1 µM	> 100 µM									
O=C(c1ccc(O)cc1O)C1C(c2ccc(O)cc2)OC(c2ccc(O)cc2)C1C(=O)c1ccc(O)cc1O (stereo not drawn)	22.9 µM	56.8 µM		67.9 µM	63.1 µM	49.8 µM			39.7 µM									
COc1ccc(N2C(=O)c3c(c4[nH]c5ccccc5c4c4ccc(C(C)(C)C)cc34)C2=O)cc1	> 100 µM	63.6 µM	48.3 µM	92.9 µM	> 100 µM	> 100 µM	42.1 µM	77.1 µM	> 100 µM									
CCOC1=C2N=C(C(CC)c3ccccc3F)N=C2C(=O)c2ccccc21 (stereo not drawn)	> 100 µM	> 100 µM	> 100 µM	> 100 µM	> 100 µM	> 100 µM	> 100 µM		> 100 µM									
Cc1ccc(NC(=O)CCc2nc(=S)[nH][nH]2)cc1	> 100 µM	> 100 µM	> 100 µM	> 100 µM	> 100 µM	> 100 µM	> 100 µM	> 100 µM	> 100 µM									
CCOC(=O)C(C)(NC(=O)c1ccc(NCc2ccc3nc(NC(=O)c4ccccc4)nc(NC(=O)c4ccccc4)c3c2)cc1)C(=O)OCC	31.2 µM	17.8 µM	22.1 µM	19.9 µM	23.6 µM	48.9 µM		22.7 µM	36.4 µM									
COc1cc2ccc3c4ccccc4cnc3c2cc1OC	> 100 µM	> 100 µM	> 100 µM	> 100 µM	> 100 µM	> 100 µM	> 100 µM		> 100 µM									
Nc1ccc2n[se]nc2c1	> 100 µM	> 100 µM	> 100 µM	> 100 µM	> 100 µM	> 100 µM	> 100 µM	> 100 µM	> 100 µM									
CC(=O)C1CCN(c2ccccc2)C1 (stereo not drawn)	> 100 µM	> 100 µM	> 100 µM	> 100 µM	> 100 µM	> 100 µM	> 100 µM	> 100 µM	> 100 µM									
COC1C2C[C@@H](O)CCC2C(C(=O)OCCl)C[C@H]1O (stereo partly drawn)	> 100 µM	> 100 µM	> 100 µM		> 100 µM	> 100 µM	> 100 µM	> 100 µM	> 100 µM									
